Entries after “also recorded” stand apart in the source; their conditions may differ.
Experiments:
[1] = tested on: human naïve CD4 T cells; assay: RNA sequencing and GSEA of in vitro differentiated CD4 T cells; type: cell-based; details: for genes differentially upregulated, activin A+IL-12 versus TGFβ+IL-12: each cytokine combined with IL-12, RNA-seq day 3; for expression of bona fide GC Tfh signature genes (GSEA): activin A or activin A+IL-12 versus beads, IL-12
Procedure: Differentiation of naïve CD4^+ T cells with activin A and/or IL-12 was described above. Naïve CD4 T cells from 4 or more donors were cultured with the following conditions: beads only (beads), IL-12, activin A (100 ng/ml), activin A (100 ng/ml)+IL-12, TGFβ, TGFβ+IL-12. After 3 days of in vitro culture, live CD4^+ T cells were sorted by FACS. Total RNA was purified using miRNAeasy Mini kit (Qiagen). Standard quality control steps were included to determine total RNA quality using Agilent Bioanalyzer (RNA integrity number (RIN)>8.5; Agilent RNA 6000 Nano Kit, USA) and quantity using a nanoliter spectrophotometer (Nanodrop, Thermofisher, USA). For every sample, 500 ng of purified total RNA was prepared into mRNA libraries, according to manufacturer's instructions, using the Truseq Stranded mRNA Library Prep Kit (Illumina, RS-122-2103). The resulting libraries were deep sequenced, using the Illumina HiSeq2500 system in rapid run mode, to obtain between 6 to 7 millions of 50-bp length single-end reads per library.
The single-end reads that passed Illumina filters were filtered for reads aligning to tRNA, rRNA, adapter sequences, and spike-in controls. The reads were then aligned to UCSC hg19 reference genome using TopHat^55(v 1.4.1). DUST scores were calculated with PRINSEQ Lite^56 (v 0.20.3) and low-complexity reads (DUST >4) were removed from the BAM files. The alignment results were parsed via the SAMtools^57 to generate SAM files. Read counts to each genomic feature were obtained with the htseq-count program^58 (v 0.6.0) using the “union” option. After removing absent features (zero counts in all samples), the raw counts were converted to RPKM value followed by quantile normalization via R library ‘aroma.light’ ^59. Then the quantile normalized RPKM values were filtered by setting a cutoff value of 1 and analyzed with the Multiplot module in GenePattern suite (http://www.broadinstitute.org/cancer/software/genepattern/) to generate the Volcano, Heatmap and Expression plots. Meanwhile the filtered raw counts were imported to R/Bioconductor package DESeq2^60 (v 3.1) to normalize counts and identify differentially expressed genes among conditions.
The tonsil GC Tfh gene set was generated from previously published microarray data^38 and defined by genes with more than two-fold higher expression in GC-Tfh cells (CD4^+CD45RO^+PD-1^hiCXCR5^hi) compared to non-Tfh cells (CD4^+CD45RO^+PD-1^−CXCR5^−). […] The signal-to-noise metric was used for ranking the genes in the RNA-seq expression datasets and 10^5 cycles of permutations on the phenotype labels were performed to determine the normalized enrichment score (NES).

[2] = tested on: human naïve CD4 T cells; assay: In vitro Tfh differentiation, PD-1 and CXCR5 expression by FACS; type: cell-based
Procedure: For surface staining, primary-staining panels used for phenotypic analysis or for cell sorting known in the art were used. For the intranuclear staining: cells were treated with the FoxP3 Fixation/Permeabilization kit (eBioscience) and stained in Permeabilization buffer (eBioscience). For cytokine staining: day 3 or day 5 in vitro differentiated cells (specified in the main text or in figure legends) cells were stimulated for 5 hours at 37° C. with Phorbol 12-myristate 13-acetate (PMA, 25 ng/ml) and Ionomycin (1 μg/ml) in the presence of Brefeldin A (5 μg/ml). Cells were fixed with PBS 2% FBS, 1% PFA and permeabilized with PBS 2% FBS, 0.5% Saponin (from quillaja bark, Sigma-Aldrich). Samples were analyzed on a LSR Fortessa Cell Analyzer (BD, Bioscience). Flow cytometry data were analyzed with FlowJo (Tree Star). For cell sorting, cells were sorted using sorted using a FACS Aria (BD, Bioscience).
Unless differently specified, naïve CD4^+ T cells were enriched from PBMCs by magnetic bead negative selection with the Naïve CD4^+ T Cell Isolation Kit (Stem Cell Technologies). Purity (CD4^+CD45RA^+) was 90% or higher. Cells (7.5×10^4 cells/well) were activated by Dynabeads Human T-Activator CD3/CD28 (2 μl/well, Life Technologies) and cultured with recombinant human/mouse/rat activin A (50 ng/ml or 100 ng/ml), recombinant human IL-12 (5 ng/ml), recombinant human TGFβ (1 ng/ml), recombinant human IL-23 (10 ng/ml) or recombinant human IL-35 (10 ng/ml) in the presence of and recombinant human IL-7 (4 ng/ml) in AIM-V medium (Life Technologies). All cytokines were from R&D System and Peprotech. The 14 kDa mature human beta A chain of human activin A shares 100% amino acid sequence identity with bovine, feline, mouse, porcine, and rat beta A. Phenotype was quantified after 3 or 5 days, as specified in the main text of Figure legends. Similar results were obtained when using Treg-depleted FACS sorted naïve CD4 T cells, in which cells were sorted from total PBMCs by flow cytometry as CD19^−CD8^−CD14^−CD16^− CD4^+CD45RO^−CD25^− cells. For experiments quantifying supernatant CXCL13 concentration, cells were activated by plate-bound anti-human CD3 (5 μg/ml, BD) and ICOS-L (5 μg/ml, recombinant human B7-H2, R&D). CXCL13 concentrations were determined via human CXCL13 DuoSet ELISA (R&D) on supernatants harvested after 5 days of in vitro culture. For blocking experiments, cells were cultured with anti-activin A blocking mAb (5 μg/ml, clone 69403, R&D), anti-TGFβ mAb (100 μg/ml, clone 1D11.16.8, BioXcell), or equivalent concentration of mouse IgG1 isotype mAb (BioXcell). For blockade of IL-2, cells were cultured with anti-IL-2 blocking mAb (10 μg/ml, clone 5334, R&D) or mouse IgG1 isotype mAb (BioXcell).

[3] = tested on: autologous memory B cells; assay: T-B co-culture, B cell help; type: cell-based, human; details: CD4 T cells differentiated with activin A+IL-12, 7 days with SEB
[4] = tested on: rhesus macaque naïve CD4 T cells; assay: Non-human primate (NHP) differentiation; type: cell-based, macaca mulatta (rhesus macaques); details: 5 days
Procedure: CD4^+ T cells from rhesus macaque PBMCs were enriched using the Non-Human Primate CD4^+ T Cell Isolation Kit (Miltenyi Biotec). Naïve CD4^+ T cells were isolated by FACS sorting as CD4^+CD45RA^+CD95^−CD28^+CCR7^+ cells. Naïve CD4^+ T cells (7.5×10^4 cells/well) were activated by plate-bound anti-human-CD3 and anti-human-CD28 (both at 5 μg/ml, BD) and cultured with recombinant human/mouse/rat activin A (50 ng/ml) and/or recombinant human IL-12 (5 ng/ml) for 5 days. Phenotype was assessed by flow cytometry.

[5] = activin A alone, anti CD3/CD28 coated beads

| Substance | genes differentially upregulated, activin A+IL-12 versus TGFβ+IL-12 [1] [genes] | induction of CXCR5 and PD-1 expression ([2]; TGFβ with IL-12, serum free media) | regulation of Tfh-signature genes LIF, LTA, PDCD1, TNF ([1]; RNA-seq day 3, heat-map (FIG. 2K)) | expression of bona fide GC Tfh signature genes (GSEA) [1] | expression of bona fide GC Tfh signature genes (GSEA) ([1]; listed as Activin A) | genes selectively upregulated versus beads only ([1]; activin A+IL-12, RNA-seq day 3) [genes] | genes suppressed versus beads only ([1]; activin A+IL-12, RNA-seq day 3) [genes] | CXCR5 expression [2, 5] | PD-1 induction [2, 5] | PD-1 and CXCR5 expression (PD1+CXCR5+ cells), additive or synergistic effect ([2]; activin A combined with TGFβ) | retention of CXCR5 and PD-1 expression over time ([2]; activin A in combination with IL-12, monitored 0-10 days) | capacity to regulate differentiation of PD-1+CXCR5+ cells, TGFβ compared with activin A ([2]; combined with IL-12) | coexpression of PD-1 and CXCR5 (PD-1+CXCR5+ cells) ([2]; in combination with IL-12) | PD-1 and CXCR5 expression on activated naïve CD4 T cells ([2]; serum free conditions, activin A titration) | B cell help (B cell proliferation and survival, plasmablast differentiation, IgG production) [3] | induction of PD-1+CXCR5+ cells [4] |
| --- | --- | --- | --- | --- | --- | --- | --- | --- | --- | --- | --- | --- | --- | --- | --- | --- |
| TGFβ | 45 | can synergize with IL-12 to induce CXCR5 and PD-1 expression | – | – | – | – | – | – | – | – | – | – | – | – | – | – |
| activin A: commercial recombinant cytokine, homodimer of the INHBA gene product (inhibin beta A) | 35 | – | major factor regulating several Tfh-signature genes such as LIF, LTA, PDCD1, and TNF | imprinted with bona fide GC Tfh signature genes | contributed more than IL-12 to driving expression of bona fide GC Tfh associated genes | 116 | 60 | some CXCR5 expression | massive PD-1 induction | no synergy between TGFβ and activin A; also recorded: neither PD-1 nor CXCR5 expression changed when activin A and TGFβ were combined | retained | induced similar levels of CXCR5 and PD-1 expression compared to TGFβ | dramatic increase in the coexpression of PD-1 and CXCR5; also recorded: synergistic effect with IL-12 | induces both PD-1 and CXCR5 expression on activated naïve CD4 T cells in a dose dependent fashion | functionally competent B cell helpers | Potent induction of PD-1^+CXCR5^+ cells; also recorded: potent CXCR5 and PD-1 inducer for both human and non-human primate activated naïve CD4 T cells |

Source: US20180111991A1, “MODULATORS OF ACTIVIN AND METHODS FOR MODULATING IMMUNE RESPONSES AND T FOLLICULAR HELPER CELLS” (LA JOLLA INSTITUTE FOR ALLERGY AND IMMUNOLOGY, priority 2014, published 2018)
